Test results reported in publication PMC9718554, “Discovery of a fragment hit compound targeting D-Ala:D-Ala ligase of bacterial peptidoglycan biosynthesis” (Journal of Enzyme Inhibition and Medicinal Chemistry, 2022).
Like-named read-outs stand apart in the source and are kept apart here. One block for each compound: values may come before it.

Key:
[1] = molecular target: T1, E. coli DdlB enzyme (D-alanine:D-alanine ligase) (Escherichia coli, UniProt P07862); test: biochemical; conditions: read-out: DdlB RA; for remaining activity at 2200 µM: tested concentration 2.2 mM; for remaining activity at 1700 µM: tested concentration 1.7 mM; for remaining activity at 1800 µM: tested concentration 1.8 mM; for remaining activity at 2100 µM: tested concentration 2.1 mM; for remaining activity at 1900 µM: tested concentration 1.9 mM; for remaining activity at 2000 µM: tested concentration 2.0 mM; for remaining activity at 2400 µM: tested concentration 2.4 mM
T1 construct: made in house; host or cells: E. coli

[2] = Solubility at tested concentrations in fragment library screening; type: physicochemical
From the text: (§1) Supplement IENZ_A_2149745_SM2502.zip/DDlB_CDR05_SI_20221103.xlsx, sheet "Fragment library screening" | column: Solubility at tested concentrations

[3] = Solubility at tested concentrations in the fragment library screening; type: physicochemical
From the text: as §1

[4] = Solubility at tested concentrations (fragment library screening); type: physicochemical
From the text: as §1

[5] = at the Tested concentration [mM]

SMILES: O=C(NCCc1ccco1)C1COc2ccccc2C1 (stereo not shown) [Compound G668-0290]
remaining activity at 2200 µM ([1]; residual activity): 70%
Solubility at tested concentrations ([2]; tested concentration 2.2 mM): not soluble

SMILES: O=C(Nc1ccccc1F)NC1COc2ccccc2C1 (stereo not shown) [Compound G765-0058]
remaining activity at 1700 µM ([1]; residual activity): 93%
Solubility at tested concentrations ([2]; tested concentration 1.7 mM): not soluble

Solubility at tested concentrations [3, 5]: not soluble
SMILES: COc1ccccc1NC(=O)NC1COc2ccccc2C1 (stereo not shown) [Compound G765-0207]

SMILES: Cc1cc(C2CCCN2Cc2ccccc2O)on1 (stereo not shown) [Compound J006-2498]
remaining activity at 2300 µM ([1]; tested concentration 2.3 mM): 90%
Solubility at tested concentrations ([4]; tested concentration 2.3 mM): not soluble

SMILES: Cc1ccccc1-n1nnnc1C1(N(C)C)CCCC1 [Compound J034-0206]
remaining activity at 2200 µM ([1]; residual activity): 91%
Solubility at tested concentrations ([2]; tested concentration 2.2 mM): not soluble

SMILES: O=C(Cc1c[nH]c2ncccc12)NCC1CCCCC1 [Compound M508-0609]
remaining activity at 1800 µM ([1]; residual activity): 92%
Solubility at tested concentrations ([4]; tested concentration 1.8 mM): not soluble

SMILES: O=C(O)c1cc(-c2ccc3ccccc3c2)[nH]n1 [Compound R052-2028]
remaining activity at 2100 µM [1]: 50%
Solubility at tested concentrations ([3]; tested concentration 2.1 mM): not soluble

SMILES: Cc1ccc(S(=O)(=O)N(C)CC2CCOC2)c(C)c1 (stereo not shown) [Compound S213-1641]
remaining activity at 2100 µM ([1]; residual activity): 110%
Solubility at tested concentrations ([2]; tested concentration 2.1 mM): not soluble

SMILES: Cc1ccccc1S(=O)(=O)Nc1cnc2c(c1)CCC2 [Compound T157-0058]
remaining activity at 2100 µM ([1]; residual activity): 48%
Solubility at tested concentrations ([2]; tested concentration 2.1 mM): not soluble

SMILES: CC(C)Oc1n[nH]c(-c2ccc(Cl)cc2Cl)n1 [Compound V017-7311]
remaining activity at 2200 µM ([1]; residual activity): 98%
Solubility at tested concentrations ([2]; tested concentration 2.2 mM): not soluble

SMILES: CC(C)(C)OC(=O)NCc1cccc(-c2cncs2)c1 [Compound V029-2538]
remaining activity at 1700 µM ([1]; residual activity): 69%
Solubility at tested concentrations ([2]; tested concentration 1.7 mM): not soluble

SMILES: Oc1cc(-c2ccccc2)cc2c1nnc1ncnn12 [Compound Y021-2954]
remaining activity at 1900 µM ([1]; residual activity): 79%
Solubility at tested concentrations ([4]; tested concentration 1.9 mM): not soluble

SMILES: Oc1cccc2c1nnc1nc(-c3cccnc3)nn12 [Compound Y021-2955]
remaining activity at 1900 µM ([1]; residual activity): 45%
Solubility at tested concentrations ([4]; tested concentration 1.9 mM): not soluble

Solubility at tested concentrations [3, 5]: not soluble
SMILES: Cc1cc(C)c(S(=O)(=O)N(C)C2CCCCC2)c(C)c1 [Compound Y030-0169]

SMILES: O=S(=O)(NC1CCCCCC1)c1ccc(F)cc1 [Compound Y030-0828]
remaining activity at 2000 µM ([1]; residual activity): 89%
Solubility at tested concentrations ([2]; tested concentration 2.0 mM): not soluble

SMILES: O=S(=O)(Cc1ccc(Cl)cc1)N1CCOCC1 [Compound Y031-1160]
remaining activity at 2200 µM ([1]; residual activity): 118%
Solubility at tested concentrations ([2]; tested concentration 2.2 mM): not soluble

SMILES: O=C(O)c1cnc2ccc(F)cc2c1O [Compound Y042-3098]
remaining activity at 2400 µM [1]: 53%
Solubility at tested concentrations ([3]; tested concentration 2.4 mM): not soluble

SMILES: O=C(O)c1cnc2cc(Cl)ccc2c1O [Compound Y042-3116]
remaining activity at 2200 µM [1]: 44%
Solubility at tested concentrations ([3]; tested concentration 2.2 mM): not soluble

SMILES: O=C(O)c1cnc2c(OC(F)(F)F)cccc2c1O [Compound Y042-3118]
remaining activity at 1800 µM ([1]; residual activity): 88%
Solubility at tested concentrations ([4]; tested concentration 1.8 mM): not soluble

SMILES: O=C(O)c1cnc2ccc(OC(F)(F)F)cc2c1O [Compound Y042-3162]
remaining activity at 1800 µM ([1]; fragment library screening): -5%
Solubility at tested concentrations ([2]; tested concentration 1.8 mM): not soluble

SMILES: CC1CCN(C(=O)CC2(n3cccc3)CCCCC2)CC1 [Compound Y042-5984]
remaining activity at 1700 µM ([1]; residual activity): 90%
Solubility at tested concentrations ([2]; tested concentration 1.7 mM): not soluble

SMILES: CCCCc1ccc2ncc(C(=O)O)c(O)c2c1 [Compound Y044-2907]
remaining activity at 2000 µM [1]: 85%
Solubility at tested concentrations ([3]; tested concentration 2.0 mM): not soluble

SMILES: CC(C)c1ccc(C(=O)Nc2nnc[nH]2)cc1 [Compound Y200-5752]
remaining activity at 2200 µM ([1]; residual activity): 52%
Solubility at tested concentrations ([4]; tested concentration 2.2 mM): not soluble

SMILES: NS(=O)(=O)c1ccc(NC(=O)C2CCCC2)cc1 [Compound Y205-5953]
remaining activity at 1900 µM [1]: 62%
Solubility at tested concentrations ([3]; tested concentration 1.9 mM): not soluble

SMILES: Cc1cccc(CC(=O)Nc2cccc(C(=O)O)c2)c1 [Compound Y206-6127]
remaining activity at 1900 µM [1]: 58%
Solubility at tested concentrations ([3]; tested concentration 1.9 mM): not soluble

SMILES: Cc1ccc(CS(=O)(=O)N2CCCCC2)cc1 [Compound Y300-3037]
remaining activity at 2400 µM [1]: 88%
Solubility at tested concentrations ([4]; tested concentration 2.4 mM): not soluble

Solubility at tested concentrations [3, 5]: not soluble
SMILES: c1ccc(-c2nnc(CC34CC5CC(CC(C5)C3)C4)o2)nc1 [Compound Y502-6922]

SMILES: O=C(O)c1cnn2c(-c3ccco3)ccnc12 [Compound Y504-8728]
remaining activity at 2200 µM [1]: 56%
Solubility at tested concentrations ([3]; tested concentration 2.2 mM): not soluble

SMILES: Cc1cc(N)nn1CC(=O)O [Compound Y504-8763]
remaining activity at 3200 µM ([1]; tested concentration 3.2 mM): 57%
Solubility at tested concentrations ([4]; tested concentration 3.2 mM): not soluble
